Measured values published in EP0209462A1, “Liquid stable anthelmintic and fungicidal composition based on bithionol sulfoxide” (SOCIETE NATIONALE ELF AQUITAINE, priority 1985, dated 1987).
Like-named read-outs stand apart in the source and are kept apart here.

How the values were obtained:
[1] = Maximum tolerated dose and therapeutic index; conditions: in vivo, read-out: indice thérapeutique
Text: La présente invention apporte un progrès marqué dans les traitements des atteintes justiciables du bithionol sulfoxyde et des mélanges de ce composé avec d'autres anthelminthiques. Elle permet l'application des composés actifs sous la forme d'un liquide homogène, ne donnant pas lieu à la sédimentation, susceptible par conséquent d'être dosé avec précision et appliqué par des personnes non spécialisées.Un autre avantage considérable de la composition suivant l'invention est la possibilité de l'administration de celle-ci par injection, forme qui était complètement exclue jusqu'à présent. Un autre avantage également très important de la composition selon l'invention est qu'elle permet l'utilisation du bithionol sulfoxyde et des autres anthelminthiques, composant le mélange, à des doses moindres que celles qui étaient jusqu'alors utilisées. Pour n'en donner qu'un exemple pour le bithionol sulfoxyde, cette dose peut passer de 40 mg/kg de poids vif traité à 30 mg/kg pour une même efficacité. Lorsque l'on sait que la dose maximale tolérée est de 150 mg/kg, cela fait passer l'indice thérapeutique de moins de 4 à 5.

[2] = cited from earlier work
[3] = Stability test at different pH and temperatures (assay of both actives); assay type: physicochemical
Text: Des échantillons de la composition de l'exemple 9, qui contient 8% de bithionol sulfoxyde et 1,9% de chlorhydrate de levamisole, sont amenés à différents pH et conservés aux différentes températures, comme indiqué au tableau 4 ci-après.
Les pH inférieurs à 7 sont ajustés avec du tampon mandéli- que (1 M), tandis que les phosphates habituels ont servi (0,025 M) à fixer le pH supérieur à 7.
Dans chaque cas, le dosage des deux corps actifs est effectué aux différentes périodes choisies et les teneurs en ces corps sont notées au tableau 4.

[4] = in vivo; cited from earlier work

**Q.** For [O-][S+](c1cc(Cl)cc(Cl)c1O)c1cc(Cl)cc(Cl)c1O [bithionol sulfoxyde, bis(hydroxy-2 dichloro-3,5 phényl) sulfoxyde], which selectivity ratio ([1]; dose 30 mg/kg (composition selon l'invention)) is on record?
**A.** 5

**Q.** What about the selectivity ratio ([1]; dose 40 mg/kg de poids vif (earlier forms)) of the same molecule?
**A.** < 4

**Q.** And the “insolubilité dans l'eau” value ([2]; à 25°C)?
**A.** 4 ppm

**Q.** And the conservation ([3]; pH 2 à 4)?
**A.** tout à fait satisfaisante

**Q.** What about the conservation ([3]; pH de 6 à 8) of the same molecule?
**A.** se conserve bien

**Q.** What about the “dose maximale tolérée” value [4] of the same molecule?
**A.** 150 mg/kg

**Q.** What does the source list for c1ccc([C@H]2CN3CCSC3=N2)cc1 [chlorhydrate de L(-) levamisole, tétrahydro-2,3,5,6 phényl-6 imidazo(2,1-b)thiazole]?
**A.** solubilité dans l'eau ([2]; water): ~20%; conservation ([3]; pH 6 à 8): tient mal
